Results published in patent publication US10292980B2, “GAPDH cascade inhibitor compounds and methods of use and treatment of stress induced disorders including mental illness” (THE JOHNS HOPKINS UNIVERSITY, priority 2012, dated 2019).

Assays:
GAPDH-Siah1 binding = GAPDH-Siah1 binding (Homo sapiens, UniProt P04406); test: in vitro binding of purified recombinant GAPDH and GST-Siah1 (GST-agarose pull down, western blot); details: GAPDH pre-incubated with compound
Experimental: FIG. 4A-4D depict a deprenyl derivative compound of the present invention that blocks GAPDH-Siah1 binding. […] FIG. 4B is a graph depicting inhibition of GAPDH-Siah1 binding by the RR compound in vitro. GAPDH was pre-incubated with the RR compound, then GST-Siah1 was added and binding was assessed by GST-agarose pull down followed by western blotting. The graph represents quantification results of the blots from 6 experiments. FIG. 4C is a pair of graphs depicting in vitro MAO activity. FIG. 4D is a bar graph showing glycolytic activity in cultured rat neonatal cardiac cells exposed to 1 nM RR for 48 hours *p<0.05.
To test whether TAC elicits nuclear translocation of GAPDH and activates p300, a specific tool to intervene GAPDH nuclear translocation is needed. Several structural analogues of deprenyl that blocked GAPDH-Siah1 binding and the nuclear GAPDH cascade were previously screened (data not shown).

MAO-A/B = test: MAO activity assay in cultured myocytes; type: cell-based, rat; details: concentrations between 0.1 nM and 10^5 nM
Experimental: (§1) HAT activity assay, MEF2 activity assay, MAO activity assay, GAPDH assay: p300 HAT activity was measured using commercially available kit (Biovision), using immunoprecipitation with p300 antibody (Circulation 118, 934-946 (2008)). MEF2 activity was measured using luciferase reporter assay (Panomics). MAO activity assay was measured using commercially available kit (Peninsula Laboratory). GAPDH activity was measured as previously described in (Nat. Cell Biol., 7, 665-674 (2005)). PUMA mRNA expression was determined by real time RT-PCR using SYBR Green fluorescence on a LightCycler instrument (Roche Applied Science). Expression of the gene of interest was divided by the housekeeping gene glyceraldehyde-3-phosphate dehydrogenase (GAPDH) and presented as fold induction of control.
A major challenge to identify a compound that selectively blocks the nuclear GAPDH cascade is their potential inhibition of monoamine oxidases (MAOs), which deprenyl originally harbors. Thus, it was examined whether RR inhibits MAO-A/B in cultured myocytes and a dramatic contrast was observed between RR and deprenyl. There was no inhibition of MAOs by RR in a wide range of concentrations between 0.1 nM and 10^5 nM concentrations (FIG. 4C).

p300 HAT / MEF2 = test: p300 acetylation and MEF2 luciferase reporter activity in cardiac myocytes treated with ET1; type: cell-based, rat
Experimental: Rat neonatal cardiac myocyte culture: Rat neonatal cardiac myocytes (RNCM) were isolated from 1-2-day-old Sprague-Dawley rats, and cultured cells stimulated with 0.05 μM Endothelin-1, with or without 1 nM RR compound for 48 hours. Protein synthesis was assessed by [^3H]leucine incorporation. Adenoviral transfection of wild-type GAPDH and K227A mutant GAPDH was performed at 10-30 moi as previously described.
as §1
Augmented p300 activity reportedly leads to cardiac hypertrophic response via activation of myocyte enhancer factor 2 (MEF2), a master transcriptional factor of mal-adaptive cardiac hypertrophy. Thus, acylation of p300, and activity of MEF2 was tested, together with several outcome measures for hypertrophy response. In cardiac myocytes treated with ET1, augmentation of p300 acylation (reflecting p300 HAT activity), an augmented activity of MEF2, and increases in cell surface area, protein synthesis assayed by ^3H-leucine uptake, and B-type natriuretic peptide (BNP) expression were observed (FIGS. 5D, E).

TAC hearts = test: TAC chronic pressure-overload cardiac hypertrophy model, treatment from time of constriction; type: in vivo, mouse
Experimental: Cardiac animal models: All protocols were approved by Animal Care and Use Committee of the Johns Hopkins University. TAC was performed in C57/BL6 mice (Jackson Laboratory) as previously described in (Nat. Med., 11, 214-222 (2005), J. Clin. Invest., 119, 408-420 (2009), J. Am. Coll. Cardiol., 56, 2021-2030 (2010)). Physiological analysis, histological analysis: Echocardiography and pressure-volume loop studies were performed as described previously (Takimoto et al., Nat. Med., 11, 214-222 (2005)). 10% formalin fixed heart samples were embedded in paraffin, sectioned and stained for myocyte size (WGA staining) and fibrosis (Masson Trichrome staining) as described previously (Zhang et al., J. Am. Coll. Cardiol., 56, 2021-2030 (2010)). Isolated adult cardiac myocyte or rat neonatal cardiac myocyte was fixed with 50% methanol/50% acetone and stained with antibodies against GAPDH (Millipore), sulphonated GAPDH or HA as previously described. HAT activity assay, MEF2 activity assay, MAO activity assay, GAPDH assay: p300 HAT activity was measured using commercially available kit (Biovision), using immunoprecipitation with p300 antibody (Circulation 118, 934-946 (2008)). MEF2 activity was measured using luciferase reporter assay (Panomics). MAO activity assay was measured using commercially available kit (Peninsula Laboratory). GAPDH activity was measured as previously described in (Nat. Cell Biol., 7, 665-674 (2005)). PUMA mRNA expression was determined by real time RT-PCR using SYBR Green fluorescence on a LightCycler instrument (Roche Applied Science). Expression of the gene of interest was divided by the housekeeping gene glyceraldehyde-3-phosphate dehydrogenase (GAPDH) and presented as fold induction of control. Protein and RNA analysis: Total RNA was isolated from cells or left ventricular myocardium with Trizol (Molecular Research Center, Inc, Cincinnati, Ohio) and analyzed by real-time polymerase chain reaction (PCR) with TaqMan probes (Applied Biosystems, Foster City, Calif.). Results were normalized to GAPDH or 18S RNA. Cell lysates or nuclear extracts were obtained from cultured myocytes or ventricular tissue, resolved by SDS-polyacrylamide gel electrophoresis, subjected to immunoblotting and imaged by chemiluminescence as previously described. To understand the pathology underlying heart hypertrophy, chronic pressure overload induced by transverse aorta constriction (TAC) is used as an established experimental animal model. Heart hypertrophy is evident at 7 to 10 days after the constriction, which leads to irreversible functional defects in 9 weeks. In the present study, the TAC model was employed and identified GAPDH as a key conveyer of the pathological stress signal to nuclear p300, resulting in disruption of critical homeostasis in vivo. In the present invention, the significance of the nuclear GAPDH cascade in vivo has been shown. With this understanding there is also provided novel therapeutic methods of treatment of stress induced disorders, including, for example, cardiac hypertrophy, which are urgent and very important medical needs.

[1] = ET1-treated cardiac myocytes, 1 nM
[2] = 0.25 mg/kg/day i.p. from constriction, measured after 10th day (TAC10)
[3] = pressure volume loop analysis, RR versus vehicle treatment

Sequence of GAPDH-Siah1 binding (P04406 whole entry): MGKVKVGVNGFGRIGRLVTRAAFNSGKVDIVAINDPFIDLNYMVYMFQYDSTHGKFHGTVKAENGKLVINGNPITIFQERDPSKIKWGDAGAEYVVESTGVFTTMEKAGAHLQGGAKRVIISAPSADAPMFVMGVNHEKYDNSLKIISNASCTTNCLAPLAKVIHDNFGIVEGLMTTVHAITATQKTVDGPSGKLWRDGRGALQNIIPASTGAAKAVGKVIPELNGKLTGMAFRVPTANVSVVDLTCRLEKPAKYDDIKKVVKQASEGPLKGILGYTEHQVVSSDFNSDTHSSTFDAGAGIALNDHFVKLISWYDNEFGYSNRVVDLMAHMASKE

C#CCN1[C@H](C)Cc2ccccc2[C@H]1C [RR, (1R,3R)-1,3-dimethyl-2-propargyl-1,2,3,4-tetrahydroisoquinoline]
GAPDH-Siah1 interaction in vitro (GAPDH-Siah1 binding): blocked the interaction at nanomolar concentrations
inhibition of MAOs (MAO-A/B): no inhibition
augmentation of p300 acylation (reflecting p300 HAT activity) (p300 HAT / MEF2; [1]): clearly blocked
augmented activity of MEF2 (p300 HAT / MEF2; [1]): clearly blocked
augmentation of p300 acetylation (reflecting p300 HAT activity) in the nucleus (p300 HAT / MEF2; ET1 exposure, co-treatment with RR): blocked
levels of nuclear GAPDH in TAC hearts (TAC hearts; [2]): dramatically reduced
levels of p300 HAT activity in TAC hearts (TAC hearts; [2]): dramatically reduced
cardiac hypertrophy remodeling assessed by cardiac myocyte cell size (TAC hearts; 0.25 mg/kg/day i.p., TAC): ameliorated
cardiac hypertrophy remodeling assessed by fibrosis (TAC hearts; 0.25 mg/kg/day i.p., TAC): ameliorated
cardiac hypertrophy remodeling assessed by heart weight (TAC hearts; 0.25 mg/kg/day i.p., TAC): ameliorated
TAC-induced left ventricular dilatation (LV-EDD) (TAC hearts; echocardiogram): significantly inhibited
TAC-induced reduction in Fractional Shortening (% FS) (TAC hearts; echocardiogram): significantly inhibited
cardiac performance despite sustained pressure-overload stress (TAC hearts; invasive hemodynamic study, pressure volume loop analysis): improvement of cardiac performance
pathological gene expression profile: down-regulation of calcium handling proteins (TAC hearts; myocardial mRNA, TAC): significantly improved or normalized
pathological gene expression profile: fetal gene re-expression (BNP, β-MHC) (TAC hearts; myocardial mRNA, TAC): significantly improved or normalized
diastolic relaxation properties (Tau) (TAC hearts; [3]): significantly better
systolic function (dPdtmx) (TAC hearts; [3]): significantly better
